# Patent US11090308B2, “Methods of treating liver disorders or lipid disorders with a THR-beta agonist” (Madrigal Pharmaceuticals, Inc., priority 2016, dated 2021)
# Read-outs that look alike come from different tables or passages of the source.
# What was measured:
# [1] = Dog liver, bile, plasma distribution; format: in vivo; details: for concentration at 4 h: Beagle, po; for concentration at 4 h / Concentration in Bile: 4 hours after single daily 100 mg/kg oral doses for four days
# From the text: Tables 2A-2B show ^14C-MGL-3196 dog ADME study design.
# [2] = biological target: T1, OCT2 (Homo sapiens, UniProt O15244); experiment: In vitro drug transporter assay, OCT2; format: in vitro ADME
# T1 sequence (O15244 1-555): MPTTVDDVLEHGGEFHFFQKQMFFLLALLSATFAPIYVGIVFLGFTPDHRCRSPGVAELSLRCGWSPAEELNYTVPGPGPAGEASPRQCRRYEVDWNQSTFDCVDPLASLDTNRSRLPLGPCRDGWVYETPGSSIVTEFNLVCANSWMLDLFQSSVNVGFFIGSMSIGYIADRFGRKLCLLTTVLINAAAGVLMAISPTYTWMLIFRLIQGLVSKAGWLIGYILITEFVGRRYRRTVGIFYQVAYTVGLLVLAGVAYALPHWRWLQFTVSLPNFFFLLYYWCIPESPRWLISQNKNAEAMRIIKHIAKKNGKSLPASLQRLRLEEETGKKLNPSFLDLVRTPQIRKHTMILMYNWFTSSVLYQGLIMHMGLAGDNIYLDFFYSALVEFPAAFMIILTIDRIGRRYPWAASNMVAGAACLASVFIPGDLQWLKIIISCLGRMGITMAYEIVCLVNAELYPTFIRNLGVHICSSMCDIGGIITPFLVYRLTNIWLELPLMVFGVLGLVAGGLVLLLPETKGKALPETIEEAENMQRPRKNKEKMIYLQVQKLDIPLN
# [3] = Rat oral PK and bioavailability studies; format: in vivo
# From the text: The following studies have been conducted: (a) in vitro drug protein binding, transporter (organic anion transporting polypeptide [OATP], P-glycoprotein [P-gp], breast cancer-related protein [BCRP], and multiple drug resistance protein 1 [MDR1]), and cytochrome P-450 enzyme assays to investigate absorption, distribution, and excretion; (b) in vivo MGL-3196 rat and dog oral PK and bioavailability studies; (c) in vivo ^14C-MGL-3196 rat and dog oral pharmacokinetics, absorption, excretion, and tissue distribution by quantitative whole-body autoradiography (QWBA) studies; and (d) liver disposition of MGL-3196 using an in vitro sandwiched hepatocyte model system (B-CLEAR® technology) in dog (SCDH) and human (SCHH) hepatocytes.
# Rat & Dog PK/Bioavailability Studies were also performed.
compound,measurement,setting,value
"CC(C)c1cc(Oc2c(Cl)cc(-n3nc(C#N)c(=O)[nH]c3=O)cc2Cl)n[nH]c1=O [MGL-3196, 2-(3,5-dichloro-4-((5-isopropyl-6-oxo-1,6-dihydropyridazin-3-yl)oxy)phenyl)-3,5-dioxo-2,3,4,5-tetrahydro-1,2,4-triazine-6-carbonitrile]",concentration at 4 h,"[1]; dog, hepatic portal vein plasma, 100 mg/kg, Dog 1, read-out: Concentration in Hepatic Portal Vein Plasma",18.8 µg/mL
same,concentration at 4 h,"[1]; dog, hepatic portal vein plasma, 100 mg/kg, Dog 2, read-out: Concentration in Hepatic Portal Vein Plasma",86.6 µg/mL
same,concentration at 4 h,"[1]; dog, hepatic portal vein plasma, 100 mg/kg, Dog 3, read-out: Concentration in Hepatic Portal Vein Plasma",98.6 µg/mL
same,concentration at 4 h,"[1]; dog, hepatic portal vein plasma, 100 mg/kg, Mean, read-out: Concentration in Hepatic Portal Vein Plasma",68 µg/mL
same,concentration at 4 h,"[1]; dog, liver, 100 mg/kg, Dog 1, read-out: Concentration in Liver",129000 ng/g
same,concentration at 4 h,"[1]; dog, liver, 100 mg/kg, Dog 2, read-out: Concentration in Liver",319000 ng/g
same,concentration at 4 h,"[1]; dog, liver, 100 mg/kg, Dog 3, read-out: Concentration in Liver",210000 ng/g
same,concentration at 4 h,"[1]; dog, liver, 100 mg/kg, Mean, read-out: Concentration in Liver",219000 ng/g
same,concentration at 4 h,"[1]; dog, systemic plasma, 100 mg/kg, Dog 1, read-out: Concentration in Systemic Plasma",16.7 µg/mL
same,concentration at 4 h,"[1]; dog, systemic plasma, 100 mg/kg, Dog 2, read-out: Concentration in Systemic Plasma",81.5 µg/mL
same,concentration at 4 h,"[1]; dog, systemic plasma, 100 mg/kg, Dog 3, read-out: Concentration in Systemic Plasma",115 µg/mL
same,concentration at 4 h,"[1]; dog, systemic plasma, 100 mg/kg, Mean, read-out: Concentration in Systemic Plasma",71.1 µg/mL
same,Concentration in Bile,[1]; Dog 1,"26,400,000 ng/mL"
same,Concentration in Bile,[1]; Dog 2,"10,400,000 ng/mL"
same,Concentration in Bile,[1]; Dog 3,"15,500,000 ng/mL"
same,Concentration in Bile,[1]; Mean,"17,400,000 ng/mL"
same,Kp at 4 h,"[1]; bile versus plasma, oral, 100 mg/kg, dog, 4 h post-dose, read-out: concentration in bile higher than in plasma",~250
same,concentration in bile higher than in liver,"[1]; dog, 4 h post-dose",~80 ×
same,Kp at 4 h,"[1]; liver versus plasma, oral, dog, 4 h, 100 mg/kg, read-out: liver to plasma ratio",3.1
same,Kp at 24 h,"[1]; liver versus plasma, oral, dog, 24 h, 100 mg/kg, read-out: liver to plasma ratio",267
same,Inhibitor of: OCT2,[2],not an inhibitor
same,bioavailability,"[3]; rat, plasma, po",45 to 98%
same,half-life,"[3]; rat, plasma, rats, oral dosing, read-out: mean elimination half-life",2.5 to 7 h
same,time of maximum plasma concentrations,"[3]; rats, oral dosing",2 to 6 h
